Experimental data from patent publication US10294212B2 (CURADEV PHARMA PRIVATE LTD., priority 2013, dated 2019).
pIC50: −log10 of the molar value.

Legend:
[1] = molecular target: Human indoleamine 2,3-dioxygenase1 (hIDO1) (Homo sapiens (Human), UniProt P14902); assay: In-vitro IDO1 enzyme assay (conversion of L-tryptophan to KYN); format: biochemical; details: read-out: IC50 (IDO1) Enz
How it was run: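 His-tagged hIDO1 (10 nM, E. coli-expressed) incubated with 30 μM L-tryptophan, 20 mM ascorbate, 10 μM methylene blue and 100 μg/mL catalase in 50 mM potassium phosphate pH 6.5, 30 min at 37 °C. TCA stop, then 65 °C hydrolysis; KYN measured by HPLC-UV at 360 nm or LC/MS/MS. IC50 by nonlinear regression versus 1% DMSO control.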

IDO1 in HeLa cells = IDO1 in HeLa cells (Homo sapiens (Human), UniProt P14902); assay: HeLa cell based IDO1 assay (IFNγ-induced, KYN in supernatant)
IDO1 in HeLa cells, sequence (P14902 whole entry): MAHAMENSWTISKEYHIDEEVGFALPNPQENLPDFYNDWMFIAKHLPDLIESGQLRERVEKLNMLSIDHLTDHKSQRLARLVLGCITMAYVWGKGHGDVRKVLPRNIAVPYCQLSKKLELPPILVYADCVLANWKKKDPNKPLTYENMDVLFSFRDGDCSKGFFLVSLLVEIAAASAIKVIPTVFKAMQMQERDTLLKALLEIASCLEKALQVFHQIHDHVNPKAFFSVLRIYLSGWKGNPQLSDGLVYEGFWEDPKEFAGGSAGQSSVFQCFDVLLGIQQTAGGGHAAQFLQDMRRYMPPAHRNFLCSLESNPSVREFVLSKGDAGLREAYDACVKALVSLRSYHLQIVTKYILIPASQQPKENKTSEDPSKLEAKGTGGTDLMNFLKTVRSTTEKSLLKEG
Description: HeLa cells were obtained from ATCC and maintained in DMEM supplemented with sodium bicarbonate (2.1 g/L), HEPES (4.1 g/L), L-glutamine (2 mM), non-essential amino acid (84 mg/L) and fetal bovine serum (10% FBS) and maintained at 95% humidity and 5% CO2 in a 37° C. incubator. Unless otherwise stated, all materials were procured from Sigma. Upon incubation with gamma-interferon (IFNγ ), HeLa cells express IDO1, which catalyzes the formation of N-formyl kynurenine from tryptophan present in growth medium. The assay was performed as follows:
Cells were plated in medium (300 μL) at a density of 0.1 million per well of a 48 well plate and hIDO1 was induced by overnight treatment with IFNγ (50 ng/mL) (Peprotech, USA). The following day, cells were washed to remove IFNγ and were incubated with specific concentrations of test compounds (typically 10 μM to 1 nM, final volume 300 μL) in Hanks Balanced Salt Solution (HBSS) containing 80 μM L-tryptophan. Following incubation, supernatant (150 μL) was transferred to a 96 well plate into which 30%TCA (304) was added and the contents further incubated at 65° C. for 15 min to fully convert N-formylkynurenine to kynurenine. The reaction mixture was then centrifuged to remove sediments and the KYN in the supernatant was estimated by UV-visible absorption spectroscopy at 360 nm using a Waters HPLC system fitted with a C-18 column. (Xiangdong Liu et al. Blood 2010, Vol-117, 3520-30; Sono described above).
Percent inhibition at each concentration of test compounds was determined by estimating the decrease in KYN with reference to the reaction control with 1% DMSO vehicle. Data were analyzed using nonlinear regression to generate IC50 values using Graph Pad Prism® 5.

[2] = molecular target: Human TDO (hTDO)-transfected CHO-K1 cells (Homo sapiens (Human), UniProt P48775); assay: CHO-K1 cell based TDO assay; details: hTDO cellular assay
Human TDO (hTDO)-transfected CHO-K1 cells, sequence (P48775 whole entry): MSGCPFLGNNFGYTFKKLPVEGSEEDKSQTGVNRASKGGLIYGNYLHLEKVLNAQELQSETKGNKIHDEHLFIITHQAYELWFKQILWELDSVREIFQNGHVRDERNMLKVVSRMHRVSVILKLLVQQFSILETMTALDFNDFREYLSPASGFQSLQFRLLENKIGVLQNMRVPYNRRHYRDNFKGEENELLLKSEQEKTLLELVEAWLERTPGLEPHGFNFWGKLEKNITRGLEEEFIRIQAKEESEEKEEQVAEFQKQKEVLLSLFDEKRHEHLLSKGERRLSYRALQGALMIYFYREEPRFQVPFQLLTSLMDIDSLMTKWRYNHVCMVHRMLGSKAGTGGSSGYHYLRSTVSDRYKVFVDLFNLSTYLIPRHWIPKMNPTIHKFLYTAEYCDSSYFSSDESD
How it was run: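 Stably hTDO-expressing CHO-K1 cells were exposed to compounds (typically 31 μM to 10 nM) in HBSS with 80 μM L-tryptophan for 2 h. TCA-treated supernatant was heated at 65° C for 15 min to convert N-formylkynurenine, then kynurenine was quantified by LC/MS/MS. IC50 came from percent inhibition versus DMSO control.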

Human indoleamine 2,3-dioxygenase1 (hIDO1), sequence (P14902 whole entry): as the sequence (P14902 whole entry) above

SMILES	pIC50 [1]	pIC50 (IDO1 in HeLa cells)	pIC50 [2]
Nc1oc2c(-c3cc(Cl)cc(Cl)c3)nccc2c1Nc1ccc(F)c(Cl)c1 [Compound 258, N^3-(3-Chloro-4-fluorophenyl)-7-(3,5-dichlorophenyl)furo[2,3-c]pyridine-2,3-diamine]	> 6.70	6.00 to 6.70	< 5.70
CC(F)(F)c1cc(Nc2c(N)oc3cnccc23)ccc1F [Compound 69, N^3-(3-(1,1-Difluoroethyl)-4-fluorophenyl)furo[2,3-c]pyridine-2,3-diamine]	6.00 to 6.70	> 6.70	< 5.70
Nc1oc2c(-c3ccncc3)nccc2c1Nc1cccc(C(F)(F)F)c1 [Compound 203, 7-(Pyridin-4-yl)-N^3-(3-(trifluoromethyl)phenyl)furo[2,3-c]pyridine-2,3-diamine]	> 6.70	> 6.70	5.70 to 6.30
CNC(=O)c1cc(-c2nccc3c(Nc4ccc(F)c(F)c4)c(N)oc23)ccn1 [Compound 223, 4-(2-Amino-3-((3,4-difluorophenyl)amino)furo[2,3-c]pyridin-7-yl)-N-methylpicolinamide]	> 6.70	> 6.70	5.70 to 6.30
Nc1oc2c(Br)nccc2c1Nc1ccc(F)c(Cl)c1 [Compound 159, 7-Bromo-N^3-(3-chloro-4-fluorophenyl)furo[2,3-c]pyridine-2,3-diamine]	> 6.70	> 6.70	> 6.30
COc1cc(Nc2c(N)oc3cnccc23)ccc1Cl [Compound 9, N^3-(4-Chloro-3-methoxyphenyl)furo[2,3-c]pyridine-2,3-diamine]	< 6.00	6.00 to 6.70	5.70 to 6.30
Nc1oc2cnccc2c1Nc1ccc(Cl)c(Cl)c1 [Compound 15, N^3-(3,4-Dichlorophenyl)furo[2,3-c]pyridine-2,3-diamine]	6.00 to 6.70	6.00 to 6.70	5.70 to 6.30
Nc1oc2c(-c3cc(F)cc(F)c3)nccc2c1Nc1ccc(F)c(Cl)c1 [Compound 278, N^3-(3-Chloro-4-fluorophenyl)-7-(3,5-difluorophenyl)furo[2,3-c]pyridine-2,3-diamine]	> 6.70	> 6.70	5.70 to 6.30
Cc1cc(C)cc(-c2nccc3c(Nc4ccc(F)c(Cl)c4)c(N)oc23)c1 [Compound 277, N^3-(3-Chloro-4-fluorophenyl)-7-(3,5-dimethylphenyl)furo[2,3-c]pyridine-2,3-diamine]	> 6.70	> 6.70	5.70 to 6.30
Cc1cc(-c2nccc3c(Nc4ccc(F)cc4F)c(N)oc23)ccn1 [Compound 256, N^3-(2,4-Difluorophenyl)-7-(2-methylpyridin-4-yl)furo[2,3-c]pyridine-2,3-diamine]	> 6.70	> 6.70	> 6.30
Nc1oc2c(-c3ccc4ccccc4c3)nccc2c1Nc1ccc(F)c(Cl)c1 [Compound 247, N^3-(3-Chloro-4-fluorophenyl)-7-(naphthalen-2-yl)furo[2,3-c]pyridine-2,3-diamine]	> 6.70	> 6.70	< 5.70
Cc1cc(Cl)cc(Nc2c(N)oc3cnccc23)c1 [Compound 87, N^3-(3-Chloro-5-methylphenyl)furo[2,3-c]pyridine-2,3-diamine]	6.00 to 6.70	6.00 to 6.70	5.70 to 6.30
Cc1nccc2c(Nc3cccc(C(F)(F)F)c3)c(N)oc12 [Compound 80, 7-Methyl-N^3-(3-(trifluoromethyl)phenyl)furo[2,3-c]pyridine-2,3-diamine]	> 6.70	> 6.70	< 5.70
Cc1cc(Nc2c(N)oc3cnccc23)ccc1F [Compound 27, N^3-(4-Fluoro-3-methylphenyl)furo[2,3-c]pyridine-2,3-diamine]	> 6.70	> 6.70	5.70 to 6.30
COc1ccccc1-c1nccc2c(Nc3ccc(F)c(Cl)c3)c(N)oc12 [Compound 98, N^3-(3-Chloro-4-fluorophenyl)-7-(2-methoxyphenyl)furo[2,3-c]pyridine-2,3-diamine]	> 6.70	> 6.70	5.70 to 6.30
Cc1cc(-c2nccc3c(Nc4ccc(F)c(F)c4)c(N)oc23)ccn1 [Compound 198, N^3-(3,4-Difluorophenyl)-7-(2-methylpyridin-4-yl)furo[2,3-c]pyridine-2,3-diamine]	> 6.70	> 6.70	> 6.30

SMILES	pIC50 [1]	pIC50 (IDO1 in HeLa cells)	pIC50 [2]
CC(C)c1cccc(Nc2c(N)oc3cnccc23)c1 [Compound 43, N^3-(3-Isopropylphenyl)furo[2,3-c]pyridine-2,3-diamine]	6.00 to 6.70	> 6.70	< 5.70
N#Cc1nccc2c(Nc3cc(F)cc(F)c3)c(N)oc12 [Compound 186, 2-Amino-3-((3,5-difluorophenyl)amino)furo[2,3-c]pyridine-7-carbonitrile]	< 6.00	< 6.00	5.70 to 6.30
Nc1sc2ccc(Cl)cc2c1Nc1ccccc1 [Compound 130, 5-Chloro-N^3-phenylbenzo[b]thiophene-2,3-diamine]	6.00 to 6.70	6.00 to 6.70	< 5.70
C#Cc1cccc(Nc2c(N)sc3ccccc23)c1 [Compound 137, N^3-(3-Ethynylphenyl)-1-benzothiophene-2,3-diamine]	6.00 to 6.70	> 6.70	< 5.70
Nc1oc2c(-c3ccncc3)nccc2c1Nc1ccc(F)cc1 [Compound 201, N^3-(4-Fluorophenyl)-7-(pyridin-4-yl)furo[2,3-c]pyridine-2,3-diamine]	> 6.70	> 6.70	> 6.30
CCc1cc2c(Nc3ccc(F)c(Cl)c3)c(N)oc2c(-c2ccccc2)n1 [Compound 109, N^3-(3-chloro-4-fluorophenyl)-5-ethyl-7-phenylfuro[2,3-c]pyridine-2,3-diamine]	6.00 to 6.70	6.00 to 6.70	< 5.70
Nc1oc2c(-c3cc(F)nc(F)c3)nccc2c1Nc1ccc(F)c(Cl)c1 [Compound 191, N^3-(3-Chloro-4-fluorophenyl)-7-(2,6-difluoropyridin-4-yl)furo[2,3-c]pyridine-2,3-diamine]	> 6.70	> 6.70	5.70 to 6.30
CCc1nccc2c(Nc3ccc(F)c(C(F)(F)F)c3)c(N)oc12 [Compound 74, 7-Ethyl-N^3-(4-fluoro-3-(trifluoromethyl)phenyl)furo[2,3-c]pyridine-2,3-diamine]	> 6.70	> 6.70	< 5.70
Cc1cc(-c2nc(F)cc3c(Nc4ccc(F)c(Cl)c4)c(N)oc23)ccn1 [Compound 244, N^3-(3-Chloro-4-fluorophenyl)-5-fluoro-7-(2-methylpyridin-4-yl)furo[2,3-c]pyridine-2,3-diamine]	> 6.70	> 6.70	5.70 to 6.30
C#Cc1cccc(Nc2c(N)oc3c(C)nccc23)c1 [Compound 93, N^3-(3-ethynylphenyl)-7-methylfuro[2,3-c]pyridine-2,3-diamine]	6.00 to 6.70	> 6.70	5.70 to 6.30
COc1cc(-c2nccc3c(Nc4ccc(F)c(Cl)c4)c(N)oc23)ccn1 [Compound 229, N^3-(3-Chloro-4-fluorophenyl)-7-(2-methoxypyridin-4-yl)furo[2,3-c]pyridine-2,3-diamine]	> 6.70	> 6.70	5.70 to 6.30
COc1cc2c(Nc3ccc(F)c(Cl)c3)c(N)oc2c(-c2ccc(C(N)=O)cc2)n1 [Compound 175, 4-(2-amino-3-((3-chloro-4-fluorophenyl)amino)-5-methoxyfuro[2,3-c]pyridin-7-yl)benzamide]	> 6.70	> 6.70	< 5.70
Nc1oc2cnccc2c1Nc1cccc(I)c1 [Compound 20, N^3-(3-Iodophenyl)furo[2,3-c]pyridine-2,3-diamine]	> 6.70	> 6.70	5.70 to 6.30
Nc1oc2cnccc2c1Nc1cc(Cl)ccc1Cl [Compound 55, N^3-(2,5-Dichlorophenyl)furo[2,3-c]pyridine-2,3-diamine]	< 6.00	> 6.70	< 5.70
Nc1oc2cnc(F)cc2c1Nc1ccc(F)cc1 [Compound 228, 5-Fluoro-N^3-(4-fluorophenyl)furo[2,3-c]pyridine-2,3-diamine]	> 6.70	> 6.70	> 6.30
